IC50 data for eight molecules are collected here from patent US9340590B2 (priority 2011, dated 2016).

The target in one experiment is hNav1.5 (Homo sapiens, UniProt Q14524). Kind of experiment: cell-based.
The next experiment addresses hNav1.7 (Homo sapiens, UniProt Q15858). Put plainly: cell-based. The settings on record: Nav1.7 Use IC50.

Structures are written as SMILES. pIC50: −log10 of the molar value. Positions of bridges follow the written chain, without caps; N, C: chain ends. Non-standard residues stand in square brackets, D forms with d. Residues, ends and D or L forms follow the SMILES beside them. Phe(4-guanidino) = N=C(N)Nc1ccc(C[C@H](N)C(=O)O)cc1; hCit = NC(=O)NCCCC[C@H](N)C(=O)O; Pra = C#CC[C@H](N)C(=O)O

hNav1.7, sequence (Q15858 whole entry, looked up): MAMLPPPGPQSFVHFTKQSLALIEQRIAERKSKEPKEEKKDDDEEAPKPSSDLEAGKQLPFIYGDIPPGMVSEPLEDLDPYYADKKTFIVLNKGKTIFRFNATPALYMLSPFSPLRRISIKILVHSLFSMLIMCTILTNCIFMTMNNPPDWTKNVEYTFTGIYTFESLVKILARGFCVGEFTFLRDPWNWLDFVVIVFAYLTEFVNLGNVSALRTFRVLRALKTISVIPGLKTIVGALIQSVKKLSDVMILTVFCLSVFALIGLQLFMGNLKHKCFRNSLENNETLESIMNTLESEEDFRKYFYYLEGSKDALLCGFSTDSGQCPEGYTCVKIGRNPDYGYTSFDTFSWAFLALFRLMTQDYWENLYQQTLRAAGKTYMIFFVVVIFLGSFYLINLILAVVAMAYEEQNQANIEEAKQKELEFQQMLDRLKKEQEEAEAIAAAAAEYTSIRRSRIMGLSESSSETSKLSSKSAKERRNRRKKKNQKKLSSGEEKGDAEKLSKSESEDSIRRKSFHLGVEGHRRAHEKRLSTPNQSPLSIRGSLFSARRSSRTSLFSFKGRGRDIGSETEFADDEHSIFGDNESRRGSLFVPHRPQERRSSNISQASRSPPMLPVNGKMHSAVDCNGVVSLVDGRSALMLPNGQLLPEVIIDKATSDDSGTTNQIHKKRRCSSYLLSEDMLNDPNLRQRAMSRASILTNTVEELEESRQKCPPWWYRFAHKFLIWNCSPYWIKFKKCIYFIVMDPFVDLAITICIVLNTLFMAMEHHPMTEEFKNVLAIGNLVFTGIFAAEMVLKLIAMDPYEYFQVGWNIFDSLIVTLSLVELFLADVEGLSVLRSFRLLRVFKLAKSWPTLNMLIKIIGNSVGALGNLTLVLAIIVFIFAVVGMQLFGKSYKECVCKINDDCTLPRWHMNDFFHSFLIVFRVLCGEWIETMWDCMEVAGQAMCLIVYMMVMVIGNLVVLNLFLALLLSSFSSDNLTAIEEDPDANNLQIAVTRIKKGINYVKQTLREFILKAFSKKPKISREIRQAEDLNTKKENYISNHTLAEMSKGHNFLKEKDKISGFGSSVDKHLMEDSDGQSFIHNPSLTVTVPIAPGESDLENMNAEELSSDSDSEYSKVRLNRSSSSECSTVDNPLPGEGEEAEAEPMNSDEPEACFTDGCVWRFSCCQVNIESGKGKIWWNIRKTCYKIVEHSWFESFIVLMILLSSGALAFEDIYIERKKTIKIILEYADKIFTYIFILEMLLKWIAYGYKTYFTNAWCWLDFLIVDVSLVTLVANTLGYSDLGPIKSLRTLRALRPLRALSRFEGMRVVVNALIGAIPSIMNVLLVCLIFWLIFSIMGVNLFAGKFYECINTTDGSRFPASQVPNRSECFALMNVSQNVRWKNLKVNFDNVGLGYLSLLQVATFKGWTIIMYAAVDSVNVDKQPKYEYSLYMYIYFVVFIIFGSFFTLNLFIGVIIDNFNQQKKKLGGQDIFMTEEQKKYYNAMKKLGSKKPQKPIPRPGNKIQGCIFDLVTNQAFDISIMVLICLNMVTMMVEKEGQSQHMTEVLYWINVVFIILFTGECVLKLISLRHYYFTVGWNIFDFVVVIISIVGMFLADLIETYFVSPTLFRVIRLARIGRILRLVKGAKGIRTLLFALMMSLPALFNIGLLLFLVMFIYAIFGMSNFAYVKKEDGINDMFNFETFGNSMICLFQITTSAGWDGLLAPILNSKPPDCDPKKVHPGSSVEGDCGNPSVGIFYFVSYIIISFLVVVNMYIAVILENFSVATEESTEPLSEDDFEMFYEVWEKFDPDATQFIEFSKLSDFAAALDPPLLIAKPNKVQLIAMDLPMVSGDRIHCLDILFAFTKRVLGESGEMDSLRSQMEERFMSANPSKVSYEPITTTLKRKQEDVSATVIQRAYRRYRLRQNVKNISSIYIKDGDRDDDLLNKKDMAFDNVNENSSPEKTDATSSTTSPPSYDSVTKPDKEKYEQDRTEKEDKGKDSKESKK
hNav1.5, sequence (Q14524 whole entry, looked up): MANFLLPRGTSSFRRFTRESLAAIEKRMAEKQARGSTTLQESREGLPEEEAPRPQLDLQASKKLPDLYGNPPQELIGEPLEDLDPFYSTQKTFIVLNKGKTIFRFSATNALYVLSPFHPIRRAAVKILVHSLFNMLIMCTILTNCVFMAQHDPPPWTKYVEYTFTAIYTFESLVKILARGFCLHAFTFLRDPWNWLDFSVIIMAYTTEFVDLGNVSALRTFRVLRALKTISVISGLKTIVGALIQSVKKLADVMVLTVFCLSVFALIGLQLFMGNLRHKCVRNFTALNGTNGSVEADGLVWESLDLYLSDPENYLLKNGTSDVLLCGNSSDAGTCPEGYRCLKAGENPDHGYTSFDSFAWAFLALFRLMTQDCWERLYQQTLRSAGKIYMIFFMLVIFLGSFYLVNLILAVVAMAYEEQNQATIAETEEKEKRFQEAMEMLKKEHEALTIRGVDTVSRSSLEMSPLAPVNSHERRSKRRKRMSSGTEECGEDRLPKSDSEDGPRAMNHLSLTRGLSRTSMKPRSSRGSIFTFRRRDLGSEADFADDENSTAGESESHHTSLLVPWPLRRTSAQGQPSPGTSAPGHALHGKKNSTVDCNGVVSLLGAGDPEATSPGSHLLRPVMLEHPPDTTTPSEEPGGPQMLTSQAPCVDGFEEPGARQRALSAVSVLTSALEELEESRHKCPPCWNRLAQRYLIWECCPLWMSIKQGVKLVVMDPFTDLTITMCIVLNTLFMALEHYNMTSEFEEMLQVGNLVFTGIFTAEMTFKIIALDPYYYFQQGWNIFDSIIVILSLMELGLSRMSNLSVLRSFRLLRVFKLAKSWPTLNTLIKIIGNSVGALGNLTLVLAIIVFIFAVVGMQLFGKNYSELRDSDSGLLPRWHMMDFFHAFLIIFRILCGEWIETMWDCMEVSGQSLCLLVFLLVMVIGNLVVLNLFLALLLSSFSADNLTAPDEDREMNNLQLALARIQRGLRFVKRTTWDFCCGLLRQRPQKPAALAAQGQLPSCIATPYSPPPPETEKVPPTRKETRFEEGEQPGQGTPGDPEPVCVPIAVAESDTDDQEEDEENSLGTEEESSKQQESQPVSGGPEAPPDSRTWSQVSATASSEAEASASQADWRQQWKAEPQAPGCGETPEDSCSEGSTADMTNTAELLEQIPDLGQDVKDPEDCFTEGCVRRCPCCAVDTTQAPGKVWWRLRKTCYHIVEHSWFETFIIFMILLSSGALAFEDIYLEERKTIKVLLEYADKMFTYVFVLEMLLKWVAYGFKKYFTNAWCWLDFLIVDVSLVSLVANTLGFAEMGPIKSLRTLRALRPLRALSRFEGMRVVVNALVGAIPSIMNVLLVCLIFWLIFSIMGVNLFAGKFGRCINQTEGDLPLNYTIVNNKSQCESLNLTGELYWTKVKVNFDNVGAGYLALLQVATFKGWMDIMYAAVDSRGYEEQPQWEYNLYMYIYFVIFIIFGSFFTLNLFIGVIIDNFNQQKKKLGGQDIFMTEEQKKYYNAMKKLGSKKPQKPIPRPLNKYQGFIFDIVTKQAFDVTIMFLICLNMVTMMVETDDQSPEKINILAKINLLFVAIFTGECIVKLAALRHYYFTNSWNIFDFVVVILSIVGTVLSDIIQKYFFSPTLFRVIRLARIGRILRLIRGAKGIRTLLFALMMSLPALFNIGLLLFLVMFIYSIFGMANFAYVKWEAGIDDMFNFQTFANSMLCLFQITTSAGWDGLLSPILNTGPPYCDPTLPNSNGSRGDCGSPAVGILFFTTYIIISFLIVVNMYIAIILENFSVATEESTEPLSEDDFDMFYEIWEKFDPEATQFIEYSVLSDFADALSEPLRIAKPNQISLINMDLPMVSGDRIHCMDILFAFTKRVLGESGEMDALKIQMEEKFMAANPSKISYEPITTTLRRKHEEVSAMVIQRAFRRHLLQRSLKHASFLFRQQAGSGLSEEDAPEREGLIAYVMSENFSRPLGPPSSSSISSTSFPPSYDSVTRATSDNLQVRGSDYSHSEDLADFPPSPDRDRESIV

As for `CC[C@H](C)[C@@H]1NC(=O)[C@@H]2CSSC[C@@H]3NC(=O)[C@H](C(C)C)NC(=O)[C@H](CC(C)C)NC(=O)[C@H](CC(N)=O)NC(=O)[C@@H]4CCCN4C(=O)[C@H](CCCNC(=N)N)NC(=O)[C@H](CSSC[C@H](NC(=O)[C@@H](N)CC(=O)O)C(=O)N[C@@H](CC(C)C)C(=O)NCC(=O)N[C@@H](C)C(=O)N[C@@H](CCSC)C(=O)N[C@@H](CCCNC(=N)N)C(=O)N[C@@H](CCCCN)C(=O)N2)NC(=O)[C@H](CSSC[C@@H](C(=O)N[C@@H](CCCCN)C(=O)N[C@@H](Cc2ccc(O)cc2)C(=O)N[C@H](C(=O)N[C@@H](Cc2ccccc2)C(N)=O)C(C)C)NC(=O)[C@H](Cc2c[nH]c4ccccc24)NC(=O)[C@H](CCC(N)=O)NC(=O)[C@H](Cc2c[nH]cn2)NC(=O)[C@H]([C@@H](C)O)NC(=O)[C@H](CCCNC(=N)N)NC(=O)[C@H](CO)NC3=O)NC(=O)[C@H](CCCCN)NC(=O)[C@H](CC(=O)O)NC(=O)[C@H](CC(N)=O)NC(=O)[C@H](CC(=O)O)NC(=O)[C@@H]2CCCN2C1=O` [[Ala5;Gln28]GpTx-1(1-34)] (H-DCLGAMRKCIPDNDKCCRPNLVCSRTHQWCKYVF-NH2; disulfide 2-17, 9-23, 16-30), the results for the negative logarithm of the IC50 (pIC50) at hNav1.5 and against hNav1.7 were less than 5.00 and 7.43, respectively.
The like results for `CC[C@H](C)[C@@H]1NC(=O)[C@@H]2CSSC[C@@H]3NC(=O)[C@H](C(C)C)NC(=O)[C@H](CC(C)C)NC(=O)[C@H](CC(N)=O)NC(=O)[C@@H]4CCCN4C(=O)[C@H](CCCNC(=N)N)NC(=O)[C@H](CSSC[C@H](NC(=O)[C@@H](N)CC(=O)O)C(=O)N[C@@H](CC(C)C)C(=O)NCC(=O)N[C@@H](C)C(=O)N[C@@H](CCSC)C(=O)N[C@@H](CCCNC(=N)N)C(=O)N[C@@H](CCCCN)C(=O)N2)NC(=O)[C@H](CSSC[C@@H](C(=O)N[C@@H](CCCCN)C(=O)N[C@@H](Cc2ccc(O)cc2)C(=O)N[C@H](C(=O)N[C@@H](Cc2ccccc2)C(N)=O)C(C)C)NC(=O)[C@H](Cc2c[nH]c4ccccc24)NC(=O)[C@H](CCC(=O)O)NC(=O)[C@H](Cc2c[nH]cn2)NC(=O)[C@H]([C@@H](C)O)NC(=O)[C@H](CCCNC(=N)N)NC(=O)[C@H](CO)NC3=O)NC(=O)[C@H](CCCCN)NC(=O)[C@H](CC(=O)O)NC(=O)[C@H](CC(N)=O)NC(=O)[C@H](CC(=O)O)NC(=O)[C@@H]2CCCN2C1=O` [[Ala5;Glu28]GpTx-1(1-34)] were, in that order, less than 5.00 and 6.21.
On the same counts, the results for `CC[C@H](C)[C@@H]1NC(=O)[C@@H]2CSSC[C@@H]3NC(=O)[C@H](C(C)C)NC(=O)[C@H](CC(C)C)NC(=O)[C@H](CC(N)=O)NC(=O)[C@@H]4CCCN4C(=O)[C@H](CCCNC(=N)N)NC(=O)[C@H](CSSC[C@H](NC(=O)[C@@H](N)CC(=O)O)C(=O)N[C@@H](CC(C)C)C(=O)NCC(=O)N[C@@H](C)C(=O)N[C@@H](CCSC)C(=O)N[C@@H](CCCNC(=N)N)C(=O)N[C@@H](CCCCN)C(=O)N2)NC(=O)[C@H](CSSC[C@@H](C(=O)N[C@@H](CCCCN)C(=O)N[C@@H](Cc2ccc(O)cc2)C(=O)N[C@H](C(=O)N[C@@H](Cc2ccccc2)C(N)=O)C(C)C)NC(=O)[C@H](Cc2c[nH]c4ccccc24)NC(=O)[C@H](Cc2ccc(NC(=N)N)cc2)NC(=O)[C@H](Cc2c[nH]cn2)NC(=O)[C@H]([C@@H](C)O)NC(=O)[C@H](CCCNC(=N)N)NC(=O)[C@H](CO)NC3=O)NC(=O)[C@H](CCCCN)NC(=O)[C@H](CC(=O)O)NC(=O)[C@H](CC(N)=O)NC(=O)[C@H](CC(=O)O)NC(=O)[C@@H]2CCCN2C1=O` [[Ala5;Guf28]GpTx-1(1-34)] (H-DCLGAMRKCIPDNDKCCRPNLVCSRTH[Phe(4-guanidino)]WCKYVF-NH2; disulfide 2-17, 9-23, 16-30) are less than 5.00 and 8.30.
On the same counts, the results for `CC[C@H](C)[C@@H]1NC(=O)[C@@H]2CSSC[C@@H]3NC(=O)[C@H](C(C)C)NC(=O)[C@H](CC(C)C)NC(=O)[C@H](CC(N)=O)NC(=O)[C@@H]4CCCN4C(=O)[C@H](CCCNC(=N)N)NC(=O)[C@H](CSSC[C@H](NC(=O)[C@@H](N)CC(=O)O)C(=O)N[C@@H](CC(C)C)C(=O)NCC(=O)N[C@@H](C)C(=O)N[C@@H](CCSC)C(=O)N[C@@H](CCCNC(=N)N)C(=O)N[C@@H](CCCCN)C(=O)N2)NC(=O)[C@H](CSSC[C@@H](C(=O)N[C@@H](CCCCN)C(=O)N[C@@H](Cc2ccc(O)cc2)C(=O)N[C@H](C(=O)N[C@@H](Cc2ccccc2)C(N)=O)C(C)C)NC(=O)[C@H](Cc2c[nH]c4ccccc24)NC(=O)[C@H](CCCCNC(N)=O)NC(=O)[C@H](Cc2c[nH]cn2)NC(=O)[C@H]([C@@H](C)O)NC(=O)[C@H](CCCNC(=N)N)NC(=O)[C@H](CO)NC3=O)NC(=O)[C@H](CCCCN)NC(=O)[C@H](CC(=O)O)NC(=O)[C@H](CC(N)=O)NC(=O)[C@H](CC(=O)O)NC(=O)[C@@H]2CCCN2C1=O` [[Ala5;HCit28]GpTx-1(1-34)] (H-DCLGAMRKCIPDNDKCCRPNLVCSRTH[hCit]WCKYVF-NH2; disulfide 2-17, 9-23, 16-30) are less than 5.00 and 7.60.
With `CC[C@H](C)[C@@H]1NC(=O)[C@@H]2CSSC[C@@H]3NC(=O)[C@H](C(C)C)NC(=O)[C@H](CC(C)C)NC(=O)[C@H](CC(N)=O)NC(=O)[C@@H]4CCCN4C(=O)[C@H](CCCNC(=N)N)NC(=O)[C@H](CSSC[C@H](NC(=O)[C@@H](N)CC(=O)O)C(=O)N[C@@H](CC(C)C)C(=O)NCC(=O)N[C@@H](C)C(=O)N[C@@H](CCSC)C(=O)N[C@@H](CCCNC(=N)N)C(=O)N[C@@H](CCCCN)C(=O)N2)NC(=O)[C@H](CSSC[C@@H](C(=O)N[C@@H](CCCCN)C(=O)N[C@@H](Cc2ccc(O)cc2)C(=O)N[C@H](C(=O)N[C@@H](Cc2ccccc2)C(N)=O)C(C)C)NC(=O)[C@H](Cc2c[nH]c4ccccc24)NC(=O)[C@H](Cc2c[nH]cn2)NC(=O)[C@H](Cc2c[nH]cn2)NC(=O)[C@H]([C@@H](C)O)NC(=O)[C@H](CCCNC(=N)N)NC(=O)[C@H](CO)NC3=O)NC(=O)[C@H](CCCCN)NC(=O)[C@H](CC(=O)O)NC(=O)[C@H](CC(N)=O)NC(=O)[C@H](CC(=O)O)NC(=O)[C@@H]2CCCN2C1=O` [[Ala5;His28]GpTx-1(1-34)] (H-DCLGAMRKCIPDNDKCCRPNLVCSRTHHWCKYVF-NH2; disulfide 2-17, 9-23, 16-30), the pIC50 at hNav1.5 is less than 5.00; on hNav1.7 it was 7.59.
Consider `C#CC[C@@H]1NC(=O)[C@H](CC(=O)O)NC(=O)[C@@H]2CCCN2C(=O)[C@H]([C@@H](C)CC)NC(=O)[C@@H]2CSSC[C@@H]3NC(=O)[C@H](C(C)C)NC(=O)[C@H](CC(C)C)NC(=O)[C@H](CC(N)=O)NC(=O)[C@@H]4CCCN4C(=O)[C@H](CCCNC(=N)N)NC(=O)[C@H](CSSC[C@H](NC(=O)[C@@H](N)CC(=O)O)C(=O)N[C@@H](CC(C)C)C(=O)NCC(=O)N[C@@H](C)C(=O)N[C@@H](CC(C)C)C(=O)N[C@@H](CCCNC(=N)N)C(=O)N[C@@H](CCCCN)C(=O)N2)NC(=O)[C@H](CSSC[C@@H](C(=O)N[C@@H](CCCCN)C(=O)N[C@@H](Cc2ccc(O)cc2)C(=O)N[C@H](C(=O)N[C@@H](Cc2ccccc2)C(N)=O)C(C)C)NC(=O)[C@H](Cc2c[nH]c4ccccc24)NC(=O)[C@H](CCCNC(=N)N)NC(=O)[C@H](Cc2c[nH]cn2)NC(=O)[C@H](CC(C)C)NC(=O)[C@H](CCCNC(=N)N)NC(=O)[C@H](CO)NC3=O)NC(=O)[C@H](CCCCN)NC(=O)[C@H](CC(=O)O)NC1=O` [[Ala5;Leu6,26;Pra13;Arg28]GpTx-1(1-34)] (H-DCLGALRKCIPD[Pra]DKCCRPNLVCSRLHRWCKYVF-NH2; disulfide 2-17, 9-23, 16-30), for which the negative-log IC50 (pIC50) against hNav1.5 is less than 5.00; on hNav1.7 it was 8.05.
On the same counts, the results for `CC(C)C[C@@H]1NC(=O)[C@H](C)NC(=O)CNC(=O)[C@H](CC(C)C)NC(=O)[C@@H](NC(=O)[C@@H](N)CC(=O)O)CSSC[C@@H]2NC(=O)[C@@H]3CSSC[C@@H](C(=O)N[C@@H](CCCCN)C(=O)N[C@@H](Cc4ccc(O)cc4)C(=O)N[C@H](C(=O)N[C@@H](Cc4ccccc4)C(N)=O)C(C)C)NC(=O)[C@H](Cc4c[nH]c5ccccc45)NC(=O)[C@H](CCCCN)NC(=O)[C@H](Cc4c[nH]cn4)NC(=O)[C@H]([C@@H](C)O)NC(=O)[C@H](CCCNC(=N)N)NC(=O)[C@H](CO)NC(=O)[C@H](CSSC[C@H](NC(=O)[C@H](CCCCN)NC(=O)[C@H](CCCNC(=N)N)NC1=O)C(=O)N[C@@H](CCC(=O)O)C(=O)N1CCC[C@H]1C(=O)N[C@@H](CC(=O)O)C(=O)N[C@@H](CC(N)=O)C(=O)N[C@@H](CC(=O)O)C(=O)N[C@@H](CCCCN)C(=O)N3)NC(=O)[C@H](C(C)C)NC(=O)[C@H](CC(C)C)NC(=O)[C@H](CC(N)=O)NC(=O)[C@@H]1CCCN1C(=O)[C@H](CCCNC(=N)N)NC2=O` [[Ala5;Leu6;Glu10]GpTx-1(1-34)] are less than 5.00 and 7.52.
The like results for `CC[C@H](C)[C@@H]1NC(=O)[C@@H]2CSSC[C@@H]3NC(=O)[C@H](C(C)C)NC(=O)[C@H](CC(C)C)NC(=O)[C@H](CC(N)=O)NC(=O)[C@@H]4CCCN4C(=O)[C@H](CCCNC(=N)N)NC(=O)[C@H](CSSC[C@H](NC(=O)[C@@H](N)CC(=O)O)C(=O)N[C@@H](CC(C)C)C(=O)NCC(=O)N[C@@H](C)C(=O)N[C@@H](CC(C)C)C(=O)N[C@@H](CCCNC(=N)N)C(=O)N[C@@H](CCCCN)C(=O)N2)NC(=O)[C@H](CSSC[C@@H](C(=O)N[C@@H](CCCCN)C(=O)N[C@@H](Cc2ccc(O)cc2)C(=O)N[C@H](C(=O)N[C@@H](Cc2ccccc2)C(N)=O)C(C)C)NC(=O)[C@H](Cc2c[nH]c4ccccc24)NC(=O)[C@H](CCCCN)NC(=O)[C@H](Cc2c[nH]cn2)NC(=O)[C@H]([C@@H](C)O)NC(=O)[C@H](CCCNC(=N)N)NC(=O)[C@H](CO)NC3=O)NC(=O)[C@H](CCCCN)NC(=O)[C@H](CC(=O)O)NC(=O)[C@H](CC(N)=O)NC(=O)[C@H](CCC(=O)O)NC(=O)[C@@H]2CCCN2C1=O` [[Ala5;Leu6;Glu12]GpTx-1(1-34)] were, in that order, less than 5.00 and 7.68.

A word on the pIC50: it is −log10 of the IC50, conventionally taken in molar units. A lower pIC50 goes with a large IC50.
